Experimental data taken from patent US11046716B2, “Beta-lactamase inhibitors” (priority 2015, dated 2021).

Key:
[1] = test system: K. pneumoniae expressing the class A carbapenemase KPC-2 and the class B carbapenemase VIM-4; test: Broth microdilution MIC assay with meropenem, K. pneumoniae KPC-2 and VIM-4; format: cell-based; conditions: Fixed Mero (meropenem) 4 μg/mL; K. p. A-1797 KPC-2 VIM-4
Summary of the method: (§1)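 In cation-adjusted Mueller Hinton broth, bacteria pre-grown 3-5 hours were exposed to test compound (2-fold, 16–0.125 μg/mL) plus a static 4 μg/ml β-lactam. A panel of control β-lactams was run alongside, and the compound MIC was judged by eye following 16-20 hours at 37° C.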

SHV-5 = target: T1, SHV-5 (Klebsiella pneumoniae, UniProt P0A3M1); test: β-lactamase enzyme inhibition assay, SHV-5 (cefotaxime substrate); format: biochemical
T1 construct: made in house; host or cells: E. coli BL21(DE3)
T1 sequence (P0A3M1 22-286): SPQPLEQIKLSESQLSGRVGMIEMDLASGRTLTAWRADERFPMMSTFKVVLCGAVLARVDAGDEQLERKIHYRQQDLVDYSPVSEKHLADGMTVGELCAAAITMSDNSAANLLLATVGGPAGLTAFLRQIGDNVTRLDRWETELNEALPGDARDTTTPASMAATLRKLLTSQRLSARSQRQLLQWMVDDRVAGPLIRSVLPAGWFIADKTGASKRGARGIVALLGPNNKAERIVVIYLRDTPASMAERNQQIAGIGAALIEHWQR
Summary of the method: (§2)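 Untagged enzyme from E. coli BL21(DE3), purified by Capto S then Superdex 75; 15 min 37 °C preincubation with inhibitor; KPC-2 read with imipenem at 300 nm, SHV-5 with cefotaxime at 260 nm, OXA-1 with nitrocefin 100 μM final at 486 nm; 10 min kinetic read; IC50 vs uninhibited wells.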

OXA-48 = OXA-48 (UniProt Q6XEC0); test: β-lactamase enzyme inhibition assay, Class D oxacillinase; format: biochemical; conditions: read-out: OXA-48
[2] = test system: P. aeruginosa expressing the Class B carbapenemase VIM-2; test: Broth microdilution MIC assay with meropenem, P. aeruginosa VIM-2; format: cell-based; conditions: Fixed Mero (meropenem) 4 μg/mL; P. aerug. 2775 VIM-2
Summary of the method: as §1

VIM-2 = target: T2, VIM-2 (Escherichia coli, UniProt Q5U7L7); test: β-lactamase enzyme inhibition assay, VIM-2 (nitrocefin substrate); format: biochemical; conditions: Class B; nitrocefin substrate, 486 nm; read-out: VIM-2
T2 construct: made in house; host or cells: E. coli BL21(DE3)
Summary of the method: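 Metallo-β-lactamase VIM-2 activity was tracked spectrophotometrically at 486 nm with 100 μM nitrocefin over 10 min, following 15 min preincubation with compound at 37 °C; inhibition was calculated per concentration.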

[3] = test system: K. pneumoniae producing the Class D carbapenemase OXA-48; test: Broth microdilution MIC assay with meropenem, K. pneumoniae OXA-48; format: cell-based; conditions: Fixed Mero (meropenem) 4 μg/mL; K. p. 11978 OXA-48
Summary of the method: as §1

[4] = test system: E. coli expressing the Class A Extended Spectrum Beta-Lactamase (ESBL) CTX-M-15; test: Broth microdilution MIC assay with ceftazidime, E. coli CTX-M-15; format: cell-based; conditions: Fixed CAZ (ceftazidime) 4 μg/mL; E. coli ESBL4 CTX-M-15
Summary of the method: as §1

KPC-2 = target: T3, KPC-2 (Klebsiella pneumoniae, UniProt Q9F663); test: β-lactamase enzyme inhibition assay, KPC-2 (imipenem substrate); format: biochemical; conditions: Class A; imipenem substrate, 300 nm; read-out: KPC-2
T3 construct: made in house; host or cells: E. coli BL21(DE3)
T3 sequence (Q9F663 25-293, looked up): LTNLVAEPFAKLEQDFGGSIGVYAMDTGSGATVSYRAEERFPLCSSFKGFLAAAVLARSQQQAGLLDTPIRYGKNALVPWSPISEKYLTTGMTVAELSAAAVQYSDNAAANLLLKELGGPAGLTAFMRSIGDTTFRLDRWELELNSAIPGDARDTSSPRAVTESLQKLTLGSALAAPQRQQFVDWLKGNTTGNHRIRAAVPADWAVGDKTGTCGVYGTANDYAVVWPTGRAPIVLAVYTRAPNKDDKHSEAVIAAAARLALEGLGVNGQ
Summary of the method: as §2

AmpC = target: T4, AmpC (Enterobacter cloacae, UniProt P05364); test: β-lactamase enzyme inhibition assay, p99 AmpC (nitrocefin substrate); format: biochemical
T4 construct: made in house; host or cells: E. coli BL21(DE3)
T4 sequence (P05364 21-381): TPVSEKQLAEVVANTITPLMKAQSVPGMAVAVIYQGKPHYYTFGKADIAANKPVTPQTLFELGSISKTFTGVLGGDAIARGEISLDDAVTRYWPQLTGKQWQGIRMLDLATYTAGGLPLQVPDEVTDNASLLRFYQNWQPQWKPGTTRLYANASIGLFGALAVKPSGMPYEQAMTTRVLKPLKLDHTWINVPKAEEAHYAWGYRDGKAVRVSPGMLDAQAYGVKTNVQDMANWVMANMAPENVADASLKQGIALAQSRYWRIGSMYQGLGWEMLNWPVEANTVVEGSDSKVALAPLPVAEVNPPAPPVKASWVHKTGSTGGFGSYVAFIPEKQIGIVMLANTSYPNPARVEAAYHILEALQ
Summary of the method: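 Untagged enzyme from E. coli BL21(DE3), purified by Capto S then Superdex 75; 15 min 37 °C preincubation with inhibitor; 10 min kinetic read; IC50 vs uninhibited wells.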

[5] = test system: E. cloacae expressing the Class C P99; test: Broth microdilution MIC assay with ceftazidime, E. cloacae P99; format: cell-based; conditions: Fixed CAZ (ceftazidime) 4 μg/mL; E. cl. 144200 p99 AmpC
Description: To determine the ability of test compounds to potentiate the inhibition of the growth of bacterial strains that produce beta-lactamase enzymes in the presence of a β-lactam antibiotic, classic cell based broth microdilution MIC assays were employed. Six bacteria strains producing beta-lactamase enzymes were used: E. coli expressing the Class A Extended Spectrum Beta-Lactamase (ESBL) CTX-M-15, E. cloacae expressing the Class C P99, K. pneumoniae expressing the Class A carbapenemase KPC-2, P. aeruginosa expressing the Class B carbapenemase VIM-2, K. pneumoniae expressing the class A carbapenemase KPC-2 and the class B carbapenemase VIM-4, and K. pneumoniae producing the Class D carbapenemase OXA-48. The assay was conducted in Cation Adjusted Mueller Hinton Broth (CAMHB, BD #212322, BD Diagnostic Systems, Sparks, Md.). Bacteria strains were grown for 3-5 hours in CAMBH broth. Test compounds (Examples 1-94) were added to a microtiter plate in 2-fold serial dilutions in CAMHB in a final concentration range of 16 μg/mL to 0.125 μg/ml. An overlay of CAMHB containing a Beta-lactam was added to the compounds at a final static concentration of 4 μg/ml. […] In addition to the titration of test compounds the MICs of a panel of control beta-lactams is also tested to ensure the strains are behaving consistently from test to test. Once the test compound and antibiotics are added the plates can be inoculated according to CLSI broth microdilution method. After inoculation the plates are incubated for 16-20 hours at 37° C. then the Minimal Inhibitory Concentration (MIC) of the test compound is determined visually.
Using the methodology described above, examples of the current invention were evaluated for their ability to inhibit the growth of β-lactamase-producing bacteria in the presence of a β-lactam antibiotic.

[6] = test system: K. pneumoniae expressing the Class A carbapenemase KPC-2; test: Broth microdilution MIC assay with meropenem, K. pneumoniae KPC-2; format: cell-based; conditions: Fixed Mero (meropenem) 4 μg/mL; K. p. 156319 KPC-3
Summary of the method: as §1

SMILES | MIC (μg/mL) of Exemplary Compounds in presence of fixed β-lactams: K. p. A-1797 KPC-2 VIM-4 [1] | IC50 (SHV-5) | IC50 (OXA-48) | MIC (μg/mL) of Exemplary Compounds in presence of fixed β-lactams: P. aerug. 2775 VIM-2 [2] | IC50 (VIM-2) | MIC (μg/mL) of Exemplary Compounds in presence of fixed β-lactams: K. p. 11978 OXA-48 [3] | MIC (μg/mL) of Exemplary Compounds in presence of fixed β-lactams: E. coli ESBL4 CTX-M-15 [4] | IC50 (KPC-2) | IC50 (AmpC) | MIC (μg/mL) of Exemplary Compounds in presence of fixed β-lactams: E. cl. 144200 p99 AmpC [5] | MIC (μg/mL) of Exemplary Compounds in presence of fixed β-lactams: K. p. 156319 KPC-3 [6]
O=C(Cn1nnc(CN2CCOCC2)c1CN1CCOCC1)N[C@H]1Cc2cccc(C(=O)O)c2OB1O [Example 32, (R)-3-(2-(4,5-bis(morpholinomethyl)-1H-1,2,3-triazol-1-yl)acetamido)-2-hydroxy-3,4-dihydro-2H-benzo[e][1,2]oxaborinine-8-carboxylic acid] | A (A represents an MIC>16 μg/mL) | < 100 nM | 100 to 1000 nM | B (B represents an MIC between 1 and 16 μg/mL inclusive) | 100 to 1000 nM | A (A represents an MIC>16 μg/mL) | B (B represents an MIC between 1 and 16 μg/mL inclusive) | < 100 nM | < 100 nM | A (A represents an MIC>16 μg/mL) | B (B represents an MIC between 1 and 16 μg/mL inclusive)
NCc1nnc(CC(=O)N[C@H]2Cc3cccc(C(=O)O)c3OB2O)s1 [Example 67, (R)-3-(2-(5-(aminomethyl)-1,3,4-thiadiazol-2-yl)acetamido)-2-hydroxy-3,4-dihydro-2H-benzo[e][1,2]oxaborinine-8-carboxylic acid] | B (B represents an MIC between 1 and 16 μg/mL inclusive) | < 100 nM | 100 to 1000 nM | C (C represents an MIC of <1 μg/mL) | 100 to 1000 nM | B (B represents an MIC between 1 and 16 μg/mL inclusive) | C (C represents an MIC of <1 μg/mL) | < 100 nM | < 100 nM | C (C represents an MIC of <1 μg/mL) | B (B represents an MIC between 1 and 16 μg/mL inclusive)
NCCn1nnc(CC(=O)N[C@H]2Cc3cccc(C(=O)O)c3OB2O)n1 [Example 42, (R)-3-(2-(2-(2-aminoethyl)-2H-tetrazol-5-yl)acetamido)-2-hydroxy-3,4-dihydro-2H-benzo[e][1,2]oxaborinine-8-carboxylic acid] | C (C represents an MIC of <1 μg/mL) | < 100 nM | 100 to 1000 nM | C (C represents an MIC of <1 μg/mL) | < 100 nM | B (B represents an MIC between 1 and 16 μg/mL inclusive) | C (C represents an MIC of <1 μg/mL) | < 100 nM | < 100 nM | C (C represents an MIC of <1 μg/mL) | C (C represents an MIC of <1 μg/mL)
CSCC[C@@H](C(=O)N[C@H]1Cc2cccc(C(=O)O)c2OB1O)n1cc(CN)nn1 [Example 115, (R)-3-((S)-2-(4-(aminomethyl)-1H-1,2,3-triazol-1-yl)-4-(methylthio)butanamido)-2-hydroxy-3,4-dihydro-2H-benzo[e][1,2]oxaborinine-8-carboxylic acid] | B (B represents an MIC between 1 and 16 μg/mL inclusive) | 100 to 1000 nM | 1000 to 10000 nM | B (B represents an MIC between 1 and 16 μg/mL inclusive) | 100 to 1000 nM | B (B represents an MIC between 1 and 16 μg/mL inclusive) | C (C represents an MIC of <1 μg/mL) | 100 to 1000 nM | < 100 nM | C (C represents an MIC of <1 μg/mL) | B (B represents an MIC between 1 and 16 μg/mL inclusive)
NCc1nnn(CC(=O)N[C@H]2Cc3cccc(C(=O)O)c3OB2O)c1-c1ccsc1 [Example 108, (R)-3-(2-(4-(aminomethyl)-5-(thiophen-3-yl)-1H-1,2,3-triazol-1-yl)acetamido)-2-hydroxy-3,4-dihydro-2H-benzo[e][1,2]oxaborinine-8-carboxylic acid] | C (C represents an MIC of <1 μg/mL) | 100 to 1000 nM | < 100 nM | C (C represents an MIC of <1 μg/mL) | < 100 nM | B (B represents an MIC between 1 and 16 μg/mL inclusive) | C (C represents an MIC of <1 μg/mL) | < 100 nM | < 100 nM | B (B represents an MIC between 1 and 16 μg/mL inclusive) | B (B represents an MIC between 1 and 16 μg/mL inclusive)
NNC(=O)Cn1nnc(CC(=O)N[C@H]2Cc3cccc(C(=O)O)c3OB2O)n1 [Example 96, (R)-3-(2-(2-(2-hydrazinyl-2-oxoethyl)-2H-tetrazol-5-yl)acetamido)-2-hydroxy-3,4-dihydro-2H-benzo[e][1,2]oxaborinine-8-carboxylic acid] | B (B represents an MIC between 1 and 16 μg/mL inclusive) | < 100 nM | < 100 nM | C (C represents an MIC of <1 μg/mL) | 100 to 1000 nM | B (B represents an MIC between 1 and 16 μg/mL inclusive) | C (C represents an MIC of <1 μg/mL) | < 100 nM | < 100 nM | C (C represents an MIC of <1 μg/mL) | B (B represents an MIC between 1 and 16 μg/mL inclusive)
